Measurements published in US20210206763A1, “Anti-Proliferative Agents” (FEMTOGENIX LIMITED, priority 2015, published 2021).

Columns and labels:
JIMT-1 = test: In vitro cytotoxicity of free payloads, MTT assay; assay type: cell-based; conditions: Homo sapiens, 72 hour incubation
Description: (§1) The in vitro cytotoxicity of compounds 73, 76, 81, 88 and 93 were evaluated in the JIMT-1, MCF-7, MDA-MB-453 and SK-BR-3 (all breast cancer) cell lines using the standard MIT assay for a 72 hour incubation period (Table 3).
(§2) Tumor cell lines were maintained in RPMI1640 medium supplemented with 10% heat-inactivated fetal bovine serum, 2 mM L-glutamine and 1 mM sodium pyruvate. 1800 cells per well were seeded in a volume of 180 μl in a 96-well flat bottom polystyrene plate. The cells were allowed to adhere overnight at 37° C. in a CO2 incubator. Ligands were initially formulated in DMSO, and stocks stored at −80° C. They were then further formulated at lox concentration in RPMI1640 medium. 20 ul of diluted samples were added into each treatment well. On each plate, blank wells with no cells, and untreated wells containing cells, were included. Plates were then cultured at 37° C. in a CO2 incubator for 72 hrs. Cytotoxicity was evaluated using a tetrazolium salt-based assay, the MIT assay. After 72 hours, the supernatant was removed from each well and 200 μl of a sterile filtered 500 μg/ml MTT solution in water added to each well. The plates were then incubated at 37° C. in a CO2 incubator for 4 hrs. The supernatant was then removed and the formazan crystals formed solubilized by adding 15(411 of DMSO to each well. The plate was then read on a plate reader at 540 nm, and percentage cell survival calculated as follows: ((mean absorbance treated wells at concentration x−mean absorbance blank wells)÷(mean absorbance untreated wells at concentration x−mean absorbance blank wells))×100. Data were plotted as concentration in nM vs. % cell survival in Microsoft Excel, and IC50 values (concentration where cell survival is reduced by a half) were determined from the graph.

MCF-7 = test: In vitro cytotoxicity of free payloads, MTT assay; assay type: cell-based; conditions: Homo sapiens, MCF7; 72 hour incubation
Description: as §1, §2

MDA-MB-453 = test: In vitro cytotoxicity of free payloads, MTT assay; assay type: cell-based; conditions: Homo sapiens, 72 hour incubation
Description: as §1, §2

SK-BR-3 = test: In vitro cytotoxicity of free payloads, MTT assay; assay type: cell-based; conditions: Homo sapiens, 72 hour incubation
Description: as §1, §2

HexA DNA fragment = test: DNA footprinting; assay type: binding; conditions: overnight incubation of ligand-DNA complexes
Description: (§3) The DNA sequence selectivity profile of selected molecules was investigated using a modification of the previously established DNA footprinting assay ^[32]. Following an overnight incubation of the ligand-DNA complexes, the mixture was mixed with strand separation buffer containing 10 mM EDTA, 10 mM NaOH, 0.1% bromophenol blue, 80% formamide and incubated at 100° C. for 3 min. The mixture was then immediately cooled on ice and run on an 8% denaturing gel. […] 93 (solid black line) also interacts with two further sites. The PBD dimer Talirine (green) illustrates a different binding pattern to 73, 76, 81, 88 and 93. Strong DNA footprints are represented by solid lines and weaker footprints are represented by hatched lines. […] Strong DNA footprints are represented by solid lines, and weaker footprints are represented by hatched lines
(§4) Footprinting reactions were performed as previously described ^[36] using the DNA fragments HexA and HexB, which together contain all 64 symmetrical hexanucleotide sequences^[6], and MS1 that contains all possible […] tetranucleotide sequences ^[38]. The DNA fragments were obtained by cutting the parent plasmids with HindIII and SacI (for HexA and MS1) or EcoRI and PstI (for HexB), and were labelled at the 3′-end of the HindIII or EcoRI sites with [α-^32P]dATP using reverse transcriptase or exo-Klenow fragment. After gel purification, the radiolabelled DNA was dissolved in 10 mM Tris-HCl pH 7.5 containing 0.1 mM EDTA, at a concentration of about 10 c.p.s per μL as determined on a hand held Geiger counter. 1.5 μL of radiolabelled DNA was mixed with 1.5 μL ligand that had been freshly diluted in 10 mM Tris-HCl pH 7.5, containing 10 mM NaCl. The complexes were left to equilibrate for at least 12 hours before digesting with 2 μL DNase I (final concentration about 0.01 units/mL). The reactions were stopped after 1 minute by adding 4 μL of formamide containing 10 mM EDTA and bromophenol blue (0.1% w/v). The samples were then heated at 100° C. for 3 minutes before loading onto 8% denaturing polyacrylamide gels containing 8 M urea. Gels were fixed in 10% acetic acid, transferred to 3MM paper, dried and exposed to a phosphor screen overnight, before analysing with a Typhoon phosphorimager

MS1 DNA fragment = test: DNA footprinting; assay type: binding; conditions: overnight incubation of ligand-DNA complexes
Description: as §3, §4

Structure (SMILES)	IC50 (JIMT-1) [pM]	IC50 (MCF-7) [pM]	IC50 (MDA-MB-453) [pM]	IC50 (SK-BR-3) [pM]	number of preferred binding sites observed in HexA (HexA DNA fragment)	number of preferred binding sites observed in MS1 (MS1 DNA fragment)	further sequences bound in MS1 not occupied by 73, 76, 81 and 88 (MS1 DNA fragment)
COc1cc2c(cc1OCCCC(=O)Nc1cc(C(=O)Nc3ccc(-c4cn(C)c(C(=O)Nc5ccccc5)n4)cc3)n(C)c1)N=C[C@@H]1CCCCN1C2=O [Compound 88, (S)-4-(4-(4-(4-((2-Methoxy-12-oxo-6a,7,8,9,10,12-hexahydrobenzo[e]pyrido[1,2-a][1,4]diazepin-3-yl)oxy)butanamido)-1-methyl-1H-pyrrole-2-carboxamido)phenyl)-1-methyl-N-phenyl-1H-imidazole-2-carboxamide]	370	600	130	60	five	six	
COc1cc2c(cc1OCCCC(=O)Nc1cn(C)c(C(=O)Nc3ccc(-c4cc(C(=O)Nc5ccccc5)n(C)c4)cc3)n1)N=C[C@@H]1CCCCN1C2=O [Compound 93, (S)-4-(4-((2-Methoxy-12-oxo-6a,7,8,9,10,12-hexahydrobenzo[e]pyrido[1,2-a][1,4]diazepin-3-yl)oxy)butanamido)-1-methyl-N-(4-(1-methyl-5-(phenylcarbamoyl)-1H-pyrrol-3-yl)phenyl)-1H-imidazole-2-carboxamide]	370	2000	180	90			two
COc1cc2c(cc1OCCCC(=O)Nc1cc(C(=O)Nc3ccc(-c4cc(C(=O)Nc5ccccc5)n(C)c4)cc3)n(C)c1)N=C[C@@H]1CCCCN1C2=O [Compound 73, (S)-4-(4-((2-Methoxy-12-oxo-6a,7,8,9,10,12-hexahydrobenzo[e]pyrido[1,2-a][1,4]diazepin-3-yl)oxy)butanamido)-1-methyl-N-(4-(1-methyl-5-(phenylcarbamoyl)-1H-pyrrol-3-yl)phenyl)-1H-pyrrole-2-carboxamide]	330	420	200	270	five	six	
COc1cc2c(cc1OCCCC(=O)Nc1cc(C(=O)Nc3ccc(-c4cc(C(=O)Nc5ccc(C)cc5)n(C)c4)cc3)n(C)c1)N=C[C@@H]1CCCCN1C2=O [Compound 76, (S)-4-(4-((2-Methoxy-12-oxo-6a,7,8,9,10,12-hexahydrobenzo[e]pyrido[1,2-a][1,4]diazepin-3-yl)oxy)butanamido)-1-methyl-N-(4-(1-methyl-5-(p-tolylcarbamoyl)-1H-pyrrol-3-yl)phenyl)-1H-pyrrole-2-carboxamide]	430	530	190	290	five	six	
COC(=O)c1ccc(NC(=O)c2cc(-c3ccc(NC(=O)c4cc(NC(=O)CCCOc5cc6c(cc5OC)C(=O)N5CCCC[C@H]5C=N6)cn4C)cc3)cn2C)cc1 [Compound 81, Methyl (S)-4-(4-(4-(4-(4-((2-methoxy-12-oxo-6a,7,8,9,10,12-hexahydrobenzo[e]pyrido[1,2-a][1,4]diazepin-3-yl)oxy)butanamido)-1-methyl-1H-pyrrole-2-carboxamido)phenyl)-1-methyl-1H-pyrrole-2-carboxamido)benzoate]	500	1400	420	330	five	six	
